In patent publication US20110119780A1, “SCREENING FOR NON-GENOTOXIC CARCINOGENS” (priority 2008, published 2011):
Where “and” joins values, the source holds several entries; their conditions need not be identical. Equal values may be shown once. Read-outs that look alike come from different tables or passages of the source.

Experiments:
[1] = design: species or system mice; conditions: mouse, in vivo, po, 50 mg/kg
Description: Animals were treated either with 4 daily doses of Wy-14,643/corn oil (50 mg/kg, orally) or with corn oil alone, as shown in Table 2. Approximately 24 hr after the last dose, all mice were sacrificed using an increasing concentration of CO2. Liver and plasma were collected for analysis. Following treatment with Wy-14,643 or the vehicle (corn oil), the mice were sacrificed and their livers removed and weighed. […] The concentration of inducing agent was of supplied chemical, without any correction for purity. The volume administered was 10 ml/kg bodyweight. […] On the day of termination the mice were weighed, the body weights recorded, and then transferred to a suitable room for post mortem. Approximately 24 hrs after treatment, the mice will be killed by exposure to a rising concentration of CO2.

[2] = format: in vivo, mice; conditions: for Diluted Chol / Diluted HDL / Diluted LDL / Diluted Trig: dilution factor 2; for Diluted Chol / Diluted HDL / Diluted LDL / Diluted Trig / Normalised Chol / Normalised HDL / Normalised LDL / Normalised Trig: individual mice
Description: The plasma was processed by taking blood from the terminated mice by cardiac puncture into lithium/heparin-coated tubes. Following removal into suitable tubes for plasma preparation, terminal blood samples taken by cardiac puncture were mixed on a roller for 10 min then cooled on ice. Red blood cells were removed by centrifugation (2,000-3,000 rpm for 10 min at 8-10° C.). Immediately after centrifugation, the supernatant (plasma) was collected in eppendorfs and kept on wet ice. Plasma was transferred into cryovials for clinical chemistry and immediately flash frozen in liquid nitrogen, then stored at approximately −70° C. […] In order to investigate potential hepatotoxicity caused by Wy-14,643 treatment, markers of liver damage, alanine aminotransferase (ALT), aspartate aminotransferase (AST) and alkaline phosphatase (ALP) were measured in WT and hPPARα mice (Tables 6-8). Liver related plasma biomarkers, albumin (ALB), conjugated and total bilirubin (BIL-D and BIL-T respectively), cholesterol, high density lipoprotein (HDL-C), low density lipoprotein (LDL-C) and triglycerides were also investigated in all available plasma samples in order to characterise basal hepatic function in hPPARα mice relative to WT mice (Tables 9-15).

Cyp4a protein = conditions: WT mice; liver microsomes; 50 mg/kg orally x4 daily
Description: Henderson, University of Dundee, UK). The standard used was APFO-induced WT rat liver microsomes (1 μg protein loaded).
To investigate the downstream effects of PPARα activation, the expression of Cyp4a proteins was evaluated by immunoblot analysis in liver microsomes from WT and hPPARα mice.
Individual liver microsomal samples were analysed by immunoblotting for Cyp4a. Protein concentration was measured using the CXR microlowry method. Quantification of Cyp4a protein in mouse liver microsomes was carried out. A murine his-tagged Cyp4a recombinant standard was loaded onto the NU-PAGE gel.

[3] = tested on: cyanide-insensitive palmitoyl-CoA oxidation; experiment: Cyanide-insensitive palmitoyl CoA oxidation in mouse liver (crude mitochondria); format: in vivo; conditions: for PCO oxidation, NAD + red.: crude mitochondrial fraction of liver, 50 mg/kg orally x4 daily, individual mice, 50 mg/kg
Description: Measurements of cyanide-insensitive pCoA oxidation in crude mitochondrial fractions were performed as described.

Cyp4a activity = conditions: mouse, in vivo
Description: Lauric acid hydroxylation activity measurements in liver microsomes were performed.
Liver microsomes from each available animal were evaluated for Cyp4a activity by measuring lauric acid hydroxylation (FIG. 19, Tables 17-18).

[4] = WT mice, plasma, 50 mg/kg orally x4 daily, 50 mg/kg
[5] = WT mice, plasma, 50 mg/kg orally x4 daily, n = 3
[6] = WT mice, plasma, % mean own control
[7] = hPPARα mice, plasma, 50 mg/kg orally x4 daily, 50 mg/kg

Cc1cccc(Nc2cc(Cl)nc(SCC(=O)O)n2)c1C [Wy-14,643]
Body weights, % Mean [1]: 98%
Body weights, Mean [1]: 26 g
Liver body weight ratios, % Mean [1]: 139%
Liver body weight ratios, Mean [1]: 6.46%
Liver weights, % Mean [1]: 135%
Liver weights, Mean [1]: 1.69 g
triglyceride concentrations, decrease compared to corresponding control mice ([2]; WT mice, p<0.05): ~50%
Diluted Chol [2, 4]: 1.25 mmol/L and 1.02 mmol/L and 1.40 mmol/L
Diluted HDL [2, 4]: 1.28 mmol/L and 1.02 mmol/L and 1.36 mmol/L
Diluted LDL [2, 4]: 0.12 mmol/L and 0.08 mmol/L and 0.14 mmol/L
Diluted Trig [2, 4]: 0.27 mmol/L and 0.21 mmol/L and 0.31 mmol/L
Normalised Chol [2, 4]: 2.50 mmol/L and 2.04 mmol/L and 2.80 mmol/L
Normalised HDL [2, 4]: 2.56 mmol/L and 2.04 mmol/L and 2.72 mmol/L
Normalised LDL [2, 4]: 0.24 mmol/L and 0.16 mmol/L and 0.28 mmol/L
Normalised Trig [2, 4]: 0.54 mmol/L and 0.42 mmol/L and 0.62 mmol/L
Cholesterol, Mean [2, 5]: 2.45 mmol/L
HDL, Mean [2, 5]: 2.44 mmol/L
LDL, Mean [2, 5]: 0.23 mmol/L
Triglycerides, Mean [2, 5]: 0.53 mmol/L
Cholesterol, % Mean [2, 6]: 97%
HDL, % Mean [2, 6]: 103%
LDL, % Mean [2, 6]: 89%
Triglycerides, % Mean [2, 6]: 56%
Diluted Chol [2, 7]: 1.18 mmol/L and 1.47 mmol/L
Diluted HDL [2, 7]: 1.14 mmol/L and 1.46 mmol/L
Diluted LDL [2, 7]: 0.07 mmol/L and 0.11 mmol/L
Diluted Trig [2, 7]: 0.64 mmol/L and 0.60 mmol/L
Normalised Chol [2, 7]: 2.36 mmol/L and 2.94 mmol/L
Normalised HDL [2, 7]: 2.28 mmol/L and 2.92 mmol/L
Normalised LDL [2, 7]: 0.14 mmol/L and 0.22 mmol/L
Normalised Trig [2, 7]: 1.28 mmol/L and 1.20 mmol/L
ALP, % Mean ([2]; mouse, in vivo): 129%
ALT, % Mean ([2]; mouse, in vivo): 117%
AST, % Mean ([2]; mouse, in vivo): 121%
Albumin, % Mean ([2]; mouse, in vivo): 101%
BIL-D, % Mean ([2]; mouse, in vivo): 22%
BIL-T, % Mean ([2]; mouse, in vivo): 69%
ALP, Mean ([2]; mouse, in vivo, po, 50 mg/kg): 129 U/L
ALT, AST and ALP concentration (plasma markers of hepatotoxicity) ([2]; mouse, in vivo, po, 50 mg/kg): unaltered
ALT, Mean ([2]; mouse, in vivo, po, 50 mg/kg): 34 U/L
AST, Mean ([2]; mouse, in vivo, po, 50 mg/kg): 119 U/L
Albumin, Mean ([2]; mouse, in vivo, po, 50 mg/kg): 38 g/L
BIL-D, Mean ([2]; mouse, in vivo, po, 50 mg/kg): 0.08 µmol/L
BIL-T, Mean ([2]; mouse, in vivo, po, 50 mg/kg): 17 µmol/L
Plasma albumin levels ([2]; mouse, in vivo, po, 50 mg/kg): unaltered
triglyceride concentrations, decrease compared to corresponding control mice ([2]; the two hPPARα mice): 25% and 29%
Cyp4a protein expression (immunoblot, 50 kD band) (Cyp4a protein): marked induction
PCO oxidation, % MEAN ([3]; WT mice, % mean own control): 265%
PCO oxidation, NAD + red. ([3]; WT mice): 79 nmol/min/mg and 73 nmol/min/mg and 82 nmol/min/mg
PCO oxidation, NAD + red., MEAN ([3]; WT mice, n = 3): 78 nmol/min/mg
cyanide-insensitive pCoA oxidation, induction relative to vehicle controls ([3]; both mouse lines (WT, hPPARα), crude mitochondrial fractions): approximately 3 fold
PCO oxidation, NAD + red. ([3]; hPPARα mice): 41 nmol/min/mg and 53 nmol/min/mg
Formation of 11-OH lauric acid, % MEAN (Cyp4a activity): 308%
Formation of 11-OH lauric acid, MEAN (Cyp4a activity): 3.0 nmol/min/mg
Formation of 12-OH lauric acid, % MEAN (Cyp4a activity): 1669%
Formation of 12-OH lauric acid, MEAN (Cyp4a activity): 9.2 nmol/min/mg
